In patent US9688683B2, “Substituted condensed pyrimidine compounds” (GRÜNENTHAL GMBH, priority 2013, dated 2017) one finds IC50 and inhibition data, which are given here for 17 compounds.

The target in the experiment is human PDE4B1 (Homo sapiens (Human), UniProt Q07343). Nature of the experiment: cAMP HTRF assay to determine the activity of hPDE4B1. It counts as biochemical. To be noted: for inhibition at 3 µM: inhibition of PDE4B at a test substrate concentration of 3 μM. How it is done:
A: Determination of the PDE4B IC50 Values with a cAMP HRTF® Assay to Determine the Activity of hPDE4B1
The inhibiting effect of the compounds on the enzyme activity of human PDE4B1 is measured by the quantification of 5′-AMP, which is formed from 3′,5′-adenosine monophosphate (cAMP). Human recombinant enzyme, expressed in Sf9 cells, and the HTRF (homogeneous time-resolved fluorescence) detection method are used in the assay.
The test compound or water (control) is mixed with the human recombinant PDE4B1 enzyme (4.8 U) in a buffer consisting of 44.4 mM tris-HCl, 5.28 mM MgCl2, 2.64 mM DTT and 0.044% Tween 20 (pH 7.8). After adding the cAMP enzyme substrate (final concentration 40 nM) the mixture is incubated for 30 minutes at room temperature. Then a fluorescence acceptor (Dye2 marked with cAMP), a fluorescence donor (anti-cAMP antibody marked with a europium cryptate) and the non-specific phosphodiesterase inhibitor IBMX (3-isobutyl-1-methylxanthine; final concentration 1 mM) are added. After 60 minutes the fluorescence transfer, which correlates with the amount of remaining cAMP, is measured with a microplate reader (Rubystar, BMG) at λex=337 nm, λem=620 nm and λem=665 nm. The enzyme activity is calculated from the quotient formed from the measured signal at 665 nm and that at 620 nm. The result is expressed as the percentage inhibition of enzyme activity of the control (without PDE4 inhibitor) (literature: N. Saldou et al., Comparison of recombinant human PDE4 isoforms: interaction with substrate and inhibitors, Cell. Signal. Vol. 10, No. 6, 427-440, 1998). The enzyme is omitted for measurement of the basal control.
Background: TR-FRET usually uses a lanthanide donor and a delayed reading to cut background.

human PDE4B1, sequence (Q07343 whole entry): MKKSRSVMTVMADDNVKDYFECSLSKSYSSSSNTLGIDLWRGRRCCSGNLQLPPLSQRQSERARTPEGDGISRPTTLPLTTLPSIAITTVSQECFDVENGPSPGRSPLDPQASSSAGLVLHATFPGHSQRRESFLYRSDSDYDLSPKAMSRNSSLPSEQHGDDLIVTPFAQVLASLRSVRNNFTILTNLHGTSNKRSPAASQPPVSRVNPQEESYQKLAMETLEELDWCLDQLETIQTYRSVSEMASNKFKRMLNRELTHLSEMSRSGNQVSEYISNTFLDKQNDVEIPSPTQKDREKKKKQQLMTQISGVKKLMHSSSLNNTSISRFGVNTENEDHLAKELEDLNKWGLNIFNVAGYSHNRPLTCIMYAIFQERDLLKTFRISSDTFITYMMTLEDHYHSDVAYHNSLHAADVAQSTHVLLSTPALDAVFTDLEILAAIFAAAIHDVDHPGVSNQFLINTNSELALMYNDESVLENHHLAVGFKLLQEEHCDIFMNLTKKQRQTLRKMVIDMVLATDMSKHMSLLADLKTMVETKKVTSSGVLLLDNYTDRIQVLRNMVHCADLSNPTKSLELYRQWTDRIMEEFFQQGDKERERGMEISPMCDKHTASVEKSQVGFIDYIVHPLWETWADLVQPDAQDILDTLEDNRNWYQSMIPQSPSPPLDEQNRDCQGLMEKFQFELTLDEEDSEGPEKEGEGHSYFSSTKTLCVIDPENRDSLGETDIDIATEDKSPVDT

The IC50 is the point on the concentration scale where inhibition reaches its midpoint. `CCc1nc(-c2cccnc2)nc2c1ccn2-c1cccc(OCC(=O)N(C)C)c1` [Compound 83, 2-(3-(4-ethyl-2-(pyridin-3-yl)-7H-pyrrolo[2,3-d]pyrimidin-7-yl)phenoxy)-N,N-dimethylacetamide]: the IC50 (human recombinant PDE4B1 expressed in Sf9 cells, cAMP 40 nM, N=1-2, n=2, read-out: PDE4B IC50-value) is below 1000 nM. As a reminder, the inhibition is the percentage by which the read-out fell short of the control. Read a high inhibition as a response far below the control. Take `CCc1nc(-c2ccc3occc3c2)nc2c1CCN2c1ccc(C(=O)O)cc1` [Compound 84, 4-(2-(Benzofuran-5-yl)-4-ethyl-5H-pyrrolo[2,3-d]pyrimidin-7(6H)-yl)benzoic acid]: 3 µM produced 45% inhibition. On to `CCc1nc(-c2ccc(OC)c(F)c2)nc2c1ccn2-c1cccc(OCC(=O)N(C)C)c1` [Compound 85, 2-(3-(4-Ethyl-2-(3-fluoro-4-methoxyphenyl)-7H-pyrrolo[2,3-d]pyrimidin-7-yl)phenoxy)-N,N-dimethylacetamide], for which the inhibition at 3 µM came to 43%. `CCc1nc(-c2ccc(F)c(OC)c2)nc2c1CCN2c1ccc(CC(=O)O)cc1` [Compound 86, 2-(4-(4-Ethyl-2-(4-fluoro-3-methoxyphenyl)-5H-pyrrolo[2,3-d]pyrimidin-7(6H)-yl)phenyl)acetic acid]: the inhibition at 3 µM worked out at 47%. With `CCc1nc(-c2ccc3c(c2)OCO3)nc2c1ccn2-c1cccc(OCC(=O)N(C)C)c1` [Compound 87, 2-(3-(2-(Benzo[d][1,3]dioxol-5-yl)-4-ethyl-7H-pyrrolo[2,3-d]pyrimidin-7-yl)phenoxy)-N,N-dimethylacetamide], testing at 3 µM gave an inhibition of 52%. On the same count and under the same terms, for `CCc1nc(-c2ccc3ncsc3c2)nc2c1ccn2-c1cccc(OCC(=O)N(C)C)c1` [Compound 88, 2-(3-(2-(Benzo[d]thiazol-6-yl)-4-ethyl-7H-pyrrolo[2,3-d]pyrimidin-7-yl)phenoxy)-N,N-dimethylacetamide] the value was 51%. On the same count and under the same terms, the figure for `CCc1nc(-c2ccc3occc3c2)nc2c1CCN2c1ccc(CC(=O)O)cc1` [Compound 89, 2-(4-(2-(Benzofuran-5-yl)-4-ethyl-5H-pyrrolo[2,3-d]pyrimidin-7(6H)-yl)phenyl)acetic acid] is 63%. On the same count and under the same terms, for `CCc1nc(-c2ccc(OC(F)F)cc2)nc2c1CCN2c1ccc(CC(=O)O)cc1` [Compound 90, 2-(4-(2-(4-(Difluoromethoxy)phenyl)-4-ethyl-5H-pyrrolo[2,3-d]pyrimidin-7(6H)-yl)phenyl)acetic acid] the value was 58%; for `CCc1nc(-c2ccc(S(C)(=O)=O)cc2)nc2c1ccn2-c1cccc(OCC(=O)N(C)C)c1` [Compound 91, 2-(3-(4-Ethyl-2-(4-(methylsulfonyl)phenyl)-7H-pyrrolo[2,3-d]pyrimidin-7-yl)phenoxy)-N,N-dimethylacetamide], 52%; for `CCc1nc(-c2ccc(OC)c(Cl)c2)nc2c1ccn2-c1cccc(OCC(=O)N(C)C)c1` [Compound 92, 2-(3-(2-(3-Chloro-4-methoxyphenyl)-4-ethyl-7H-pyrrolo[2,3-d]pyrimidin-7-yl)phenoxy)-N,N-dimethylacetamide], 67%.

In the case of `CCc1nc(-c2ccc3ncsc3c2)nc2c1CCN2c1ccc(CC(=O)O)cc1` [Compound 93, 2-(4-(2-(Benzo[d]thiazol-6-yl)-4-ethyl-5H-pyrrolo[2,3-d]pyrimidin-7(6H)-yl)phenyl)acetic acid], the inhibition at 3 µM turned out to be 57%.

As to `CCc1nc(-c2ccc(OC)cc2)nc2c1ccn2-c1cccc(OCC(=O)N(C)C)c1` [Compound 94, 2-(3-(4-Ethyl-2-(4-methoxyphenyl)-7H-pyrrolo[2,3-d]pyrimidin-7-yl)phenoxy)-N,N-dimethylacetamide], the inhibition at 3 µM was found to be 54%. The compound `CCOc1ccc(-c2nc(CC)c3ccn(-c4cccc(OCC(=O)N(C)C)c4)c3n2)cc1` [Compound 95, 2-(3-(2-(4-Ethoxyphenyl)-4-ethyl-7H-pyrrolo[2,3-d]pyrimidin-7-yl)phenoxy)-N,N-dimethylacetamide] registered an inhibition at 3 µM of 41%.

In turn, `CCOc1ccc(-c2nc(CC)c3c(n2)N(c2ccc(CC(=O)O)cc2)CC3)cc1` [Compound 96, 2-(4-(2-(4-Ethoxyphenyl)-4-ethyl-5H-pyrrolo[2,3-d]pyrimidin-7(6H)-yl)phenyl)acetic acid] returned an inhibition at 3 µM of 39%. On the same count and under the same terms, for `CCc1nc(-c2cncnc2)nc2c1ccn2-c1cccc(OCC(=O)N(C)C)c1` [Compound 97, 2-(3-(4-Ethyl-2-(pyrimidin-5-yl)-7H-pyrrolo[2,3-d]pyrimidin-7-yl)phenoxy)-N,N-dimethylacetamide] the value was 67%; for `CCOc1cccc(-c2nc(CC)c3c(n2)N(c2ccc(C(=O)O)cc2)CC3)c1` [Compound 98, 4-(2-(3-Ethoxyphenyl)-4-ethyl-5H-pyrrolo[2,3-d]pyrimidin-7(6H)-yl)benzoic acid], 43%. In turn, `CCc1nc(-c2ccc(F)c(Cl)c2)nc2c1CCN2c1ccc(CC(=O)O)cc1` [Compound 99, 2-(4-(2-(3-Chloro-4-fluorophenyl)-4-ethyl-5H-pyrrolo[2,3-d]pyrimidin-7(6H)-yl)phenyl)acetic acid] came in with an inhibition at 3 µM of 54%.
